In patent US9828299B2, “Methods for rendering micellar coordination complexes safe for the treatment of plants and formulations for same” (Innovation Hammer LLC, priority 2012, dated 2017):

Assays:
Petunia = assay: Effective foliar application dose of safened ketoester formulations (synergism EAA/cosolvent); format: in vivo
[1] = system: waxy foliar surfaces of oleander leaves; assay: Effective spreading of water droplets on waxy foliar surfaces, determined visually; conditions: oleander leaf, visual determination
Text: Experimental biology investigations show an exemplary synergism of EAA to random block copolymer (RBC) using the formulations of the invention to visually determine the effect of concentration of the compounds on the effective spreading of water droplets on waxy foliar surfaces of oleander leaves. The following is an exemplary effective spreading of water droplet on a waxy leaf based on EAA synergist: • Leaf Plant Type Effective water droplet spreading • RBC EAA RBC+EAA • Oleander 0.6% 1% 0.3%+0.86%

[2] = Critical micelle concentration; format: physicochemical
Text: Ketoesters also are a source of metabolizable micellar nanoparticles for transepidermal transport; i.e., at or above the CMC of a ketoester. For example, when applied to a leaf at or above the CMC 6.48 mol % of the β-ketoester, EAA is an effective wetter and spreader of water-based solutions. This is particularly true of EAA when applied at CMC on leaves of green plants. Furthermore, by bringing the ketoester to CMC, other compounds in solution synergistically rise to CMC. For example, in the embodiments disclosed herein, physical characteristics of the CMC of the ketoester, MAA, are applied to create zinc depots.

[3] = Solubility of ketoester coordination complex
Protocol: One suitable coordination complex may be made, for example, by dissolving 10 mg ferric nitrate nonahydrate, in 1 ml water with stirring at room temperature until the solution is clear with all crystals dissolved; to the aqueous iron solution, 1 ml MAA is added with rapid stirring for 5-50 minutes or more to allow formation of the coordination complex. […] Other compositions include the following: micellar ketoester-zinc-ketoester, Zn-MNP; and micellar ketoester-copper-ketoester, Cu-MNP.
A process for novel synthesis of an MNP from iron salt is as follows: The aqueous saturated solution of 1 g ferric chloride hexahydrate is dissolved in 10 ml EAA with rapid stirring for 1 minute or more to the formation of the coordination complex.

Structure (SMILES) | effective foliar application dose (Petunia) [mM] | Effective water droplet spreading (concentration) [1] [%] | CMC (critical micelle concentration) [2] [mol %] | solubility in IPA ([3]; IPA) | solubility in water ([3]; water)
CCOC(=O)CC(C)=O [EAA, ethyl acetoacetate] | 100 | 1 | 6.48 | – | –
CCOC(=O)CC(C)=O.[Fe+3] [Fe-EAA, ferric(III)-ethyl acetoacetate] | – | – | – | soluble | insoluble
